Series [1] can be described thus: Thermal unfolding assay (circular dichroism). It is filed as physicochemical. Conditions: CD at 208 nm; 10 mM citrate, 300 mM NaCl, pH 7.4. The procedure:
The effect of temperature on the conformational stability of human BMP7 protein variants may be followed by circular dichroism (CD) on a Jasco J-810 instrument equipped with a thermoelectric sample compartment. Briefly stated, 0.2-1.0 mg/mL pro-BMP7 may be formulated in storage buffer (10 mM citrate, 300 mM NaCl, pH 7.4) and loaded into a 0.02 cm path-length CD cuvette. The sample may be heated from 20 to 80° C. at a linear rate of 1° C./minute and the resulting CD signal at 208 nm may be recorded every 0.2° C. using a 1 second signal response time. A non-linear fit to equation 1 may be performed by the program JMP (SAS Institute Inc, Cary, N.C.) to obtain the thermal unfolding mid-point (Tm).
[formula] where, Yu and Yf are fit and represent the Y-intercept of the pre- and post-transition baselines, respectively. Mu and Mf are fit and represent the slope of the pre- and post-transition baselines, respectively. Hm and S are fit and represent enthalpy and entropy, respectively. T is the measured temperature in Kelvin units.

The next series deals with 3T3-L1 fibroblasts. In words: Alkaline phosphatase stimulation in 3T3-L1 cells. The conditions noted are these: 1 μg/ml pro-BMP7, 1 μM ATRA, 48 hours. It is filed as cell-based. The procedure:
3T3-L1 fibroblasts and MFc7 mouse renal myofibroblasts may be grown essentially as described in Example 2 above. After 48 hours the cells may be washed with PBS prior to the addition of either DMEM/2% dialyzed FBS or OPTI-MEM/2% dialyzed FBS medium containing control vehicle, 1 μg/ml human proBMP7 protein, 1 μM ATRA or a combination of both human BMP7 protein (1 μg/ml) and ATRA (1 μM) may be added for 48 hours. After treatment the cells may be rinsed with PBS and stored at −80° C. for approximately 20 minutes. The cells may be thawed at 37° C. for 30 minutes and 100 μl of PNPP may be added to every well. The plate may be incubated at 37° C. for 1 hour. The absorbance at 405 nm may be read on a plate reader.

Series [2] has as its system human articular osteoarthritic (OA) chondrocytes. The series can be described thus: Proteoglycan synthesis (35S incorporation). It is filed as cell-based. Conditions: 7 days. The text has this:
Proteoglycan synthesis in human articular osteoarthritic (OA) chondrocytes is an n vitro model for chondrocyte activity. The effect of human mature BMP7 protein variants may also be evaluated on proteoglycan synthesis m human articular OA chondrocytes in vitro and compared to wild type human mature pro-BMP7. The proteoglycan synthesis may be measured using ^35S incorporation. Arthritic human knee cartilage is obtained from donors at surgery. The cartilage pieces may be finely chopped and chondrocytes may be isolated from the associated matrix by enzymatic digestions. The cartilage may be first digested with 1 mg/ml pronase in DMEM/PRF (phenol red free) media with 5% Fe supplemented calf serum (FCS) and 2% penicillin-streptomycin-antimycotic for 60 minutes followed by overnight digestion with 1 mg/ml collagenase II in DMEM/PRF media with 5% FCS) and 2% penicillin-streptomycin-antimycotic at 37° C. The cells may be washed with DMEM/F-12 media and then resuspended in DMEM/F-12 with 5% FCS and counted with a Coulter counter. The cells may be plated at a density of 30,000 cells/well in 96-well collagen coated CytoStar T plate in growth media containing DMEM, 5% FCS. ITS (insulin, transferin, selenium) and 1% penicillin-streptomycin-antimycotic. After 24 hours, the media may be replaced with 100 μl of growth media containing 10 μCi/ml (1 μCi/well) of ^35S and treated with wild type human pro-BMP7 or a human pro-BMP7 protein variants at various doses. Then the cells may be incubated for approximately 7 days at 37° C. with 5% CO2. At the end of the treatment period the media may be removed, replaced with phosphate buffered saline and ^35S incorporation is counted using a Wallac 1450 MicroBeta TriLux Liquid Scintillation Counter & Luminometer.

In series [3] the test system is MFc7 mouse renal myofibroblasts. The series can be described thus: MFc7 bioassay. It is filed as cell-based. The conditions noted are these: EC50 of wild type BMP7 protein/EC50 of the variant; multiple amino acid changes (Table 3). The procedure:
MFc7 mouse renal myofibroblasts (mouse kidney fibroblast cell line) may be maintained under routine cell culture conditions in OPTI-MEM/10% FBS medium. The cells may be plated in 10 cm tissue culture plates at a seeding density of 500,000 cells/plate. After approximately 48 hours, the cells may be washed with phosphate buffered saline (PBS) prior to the addition of OPTI-MEM/2% dialyzed fetal bovine serum (FBS) medium containing 1 μg/ml BMP7 protein or 1 μg/ml of a BMP7 protein variant and incubated for 48 hours. After treatment the cells may be rinsed with PBS and stored at −80° C. for 20 minutes. After thawing the cells at 37° C. for 30 minutes 100 μl of para-nitrophenyl phosphate (PNPP) may be added. The plate may be incubated at 37° C. for 1 hour. The absorbance at 405 nm may be read utilizing a plate reader. The average relative potency (EC50 of wild type BMP7 protein/EC50 of the BMP7 protein variant) of certain human BMP7 protein variants of the present invention may be calculated based on such readings.

The next series relates to RAR alpha. The series can be described thus: RAR alpha protein expression, Western Blot. It is filed as cell-based, mouse. The conditions noted are these: MFc7 and 3T3-L1 cell lines; 1 μg/mL, 48 hours; Western Blot intensity. The procedure: 3T3-L1 fibroblasts and MFc7 mouse renal myofibroblasts may be maintained under routine cell culture conditions in DMEM/10% calf serum medium or OPTI-MEM/10% FBS medium, respectively. The cells may be plated in 10 cm tissue culture plates at a seeding density of 500,000 cells/plate. After 48 hours, the cells may be washed with PBS prior to the addition of either DMEM/2% dialyzed FBS or OPTI-MEM/2% dialyzed FBS medium containing 1 μg/mL human BMP7 protein or 1 μg/mL of a human BMP7 protein variant. The cells may be incubated for 48 hours and then rinsed with ice-cold PBS, and then lysed with Protein Extraction Reagent. Then lysates may be centrifuged at 14,000×g for 15 minutes. A Bradford protein assay may be performed to determine the protein concentration of each lysate. Equivalent amounts of protein (for example, 25 μg) may be resolved by SDS-PAGE and then transferred to nitrocellulose membranes for Western Blot analysis. The membranes may be probed with an anti-RAR alpha antibody and/or an anti-RAR gamma antibody.

Marks after values point to notes of the source that are not given here.

On to “Wild type human pro-BMP7: homodimers of wild type human mature BMP7 in a non-covalent complex with wild type human pro-domain [reference compound]”, for which, in series [1], the “thermal unfolding mid-point (Tm)” value came out at 61 °C. The “fold change in alkaline phosphatase stimulation relative to control vehicle treated cells” value in the series with 3T3-L1 fibroblasts is listed as 1.2 fold. In addition, the “Proteoglycan Synthesis (35S incorporation)” value was 679 ± 120 CPMs in series [2] (Treatment (ng) 0.1); 724 ± 120 CPMs in series [2] (Treatment (ng) 0.4); 679 ± 120 CPMs in series [2] (Treatment (ng) 1.2); 666 ± 130 CPMs in series [2] (Treatment (ng) 3.7); 723 ± 72 CPMs in series [2] (Treatment (ng) 11); 799 ± 65 CPMs in series [2] (Treatment (ng) 33). For the same molecule, the “Proteoglycan Synthesis (35S incorporation)” value in series [2] (Treatment (ng) 100) was 1500 ± 309 CPMs; in series [2] (Treatment (ng) 300), 3325 ± 237^a CPMs.

B1: Human mature BMP7 protein variant F9 (SEQ ID NO: 8): homodimer wherein each monomeric subunit has SEQ ID NO: 8 (Y65G/I86L/F93V/N110G/Y128W), disulfide linked (protein)
chain: STGSKQRSQNRSKTPKNQEALRMANVAENSSSDQRQACKKHELYVSFRDLGWQDWIIAPEGYAAGYCEGECAFPLNSYMNATNHALVQTLVHVINPETVPKPCCAPTQLGAISVLYFDDSSNVILKKWRNMVVRACGCH
modifications: homodimer, disulfide linked
As for B1, the “Average Relative Potency” value in series [3] came out at 69. Besides, the “RAR alpha protein expression” value in the series with RAR alpha is “stimulated”.

Source of the values: patent publication US11466066B2, “Variants of human BMP7 protein” (ELI LILLY AND COMPANY, priority 2017, dated 2022).
